Holding throughout (format): functional
One assay has as its system HCT-116. Nature of the assay: Cytotoxicity against Homo sapiens (human) HCT116 cells assessed as cell growth at 10 uM after 48 hr by SRB assay relative to control. The conditions noted are these: HCT-116, 48 h, read-out: Activity. Background: Sulforhodamine B stains cellular protein and so reports cell mass.
For assay [1], the system named is Photobacterium leiognathi. Nature of the assay: Growth inhibition of Photobacterium leiognathi Sh1 assessed as bio-luminescence at 0.1 mg/ml after 10 min by acute action test relative to control. The arrangement: scale not given: the % may be the effect or the level left.
A further assay has as its system SF-539. Nature of the assay: Cytotoxicity against Homo sapiens (human) SF539 cells assessed as cell growth at 10 uM after 48 hr by SRB assay relative to control. To be noted: SF-539, 48 h, read-out: Activity.
Assay [2] concerns Photobacterium leiognathi. Nature of the assay: Growth inhibition of Photobacterium leiognathi Sh1 assessed as bio-luminescence at 0.025 mg/ml after 10 min by acute action test relative to control. Also on record: scale not given: the % may be the effect or the level left.
Assay [3] concerns Photobacterium leiognathi. Nature of the assay: Growth inhibition of Photobacterium leiognathi Sh1 assessed as bio-luminescence at 0.25 mg/ml after 16 to 18 hr by chronic action test relative to control. The arrangement: scale not given: the % may be the effect or the level left.
For assay [4], the system named is Photobacterium leiognathi. In words: Growth inhibition of Photobacterium leiognathi Sh1 assessed as bio-luminescence at 0.25 mg/ml after 10 min by acute action test relative to control. The arrangement: scale not given: the % may be the effect or the level left.
Another assay deals with SR. In words: Cytotoxicity against Homo sapiens (human) SR cells assessed as cell growth at 10 uM after 48 hr by SRB assay relative to control. To be noted: read-out: Activity.
Assay [5] relates to Photobacterium leiognathi. Nature of the assay: Growth inhibition of Photobacterium leiognathi Sh1 assessed as bio-luminescence at 0.1 mg/ml after 16 to 18 hr by chronic action test relative to control. Also on record: scale not given: the % may be the effect or the level left.
In another assay the test system is OVCAR-3. In words: Cytotoxicity against Homo sapiens (human) OVCAR3 cells assessed as cell growth at 10 uM after 48 hr by SRB assay relative to control. The conditions noted are these: OVCAR-3, 48 h, read-out: Activity.
For assay [6], the system named is Photobacterium leiognathi. In words: Growth inhibition of Photobacterium leiognathi Sh1 assessed as bio-luminescence at 0.025 mg/ml after 16 to 18 hr by chronic action test relative to control. Also on record: scale not given: the % may be the effect or the level left.
The subject of a further assay is LOX IMVI. Nature of the assay: Cytotoxicity against Homo sapiens (human) LOXIMVI cells assessed as cell growth at 10 uM after 48 hr by SRB assay relative to control. To be noted: read-out: Activity.
A further assay relates to NCI-H522. In words: Cytotoxicity against Homo sapiens (human) NCI-H522 cells assessed as cell growth at 10 uM after 48 hr by SRB assay relative to control. The conditions noted are these: NCI-H522, 48 h, read-out: Activity.
Another assay deals with HOP-92. Nature of the assay: Cytotoxicity against Homo sapiens (human) HOP92 cells assessed as cell growth at 10 uM after 48 hr by SRB assay relative to control. To be noted: HOP-92, 48 h, read-out: Activity.
A further assay has as its system MOLT-4. Nature of the assay: Cytotoxicity against Homo sapiens (human) MOLT4 cells assessed as cell growth at 10 uM after 48 hr by SRB assay relative to control. To be noted: MOLT-4, 48 h, read-out: Activity.
The nature of assay [7]: Cytotoxicity against Homo sapiens (human) […] cells assessed as cell growth at 10 uM after 48 hr by SRB assay relative to control. To be noted: read-out: Activity.
For a further assay, the system named is UO-31. In words: Cytotoxicity against Homo sapiens (human) UO31 cells assessed as cell growth at 10 uM after 48 hr by SRB assay relative to control. To be noted: UO-31, 48 h, read-out: Activity.
In another assay the test system is K562. In words: Cytotoxicity against Homo sapiens (human) K562 cells assessed as cell growth at 10 uM after 48 hr by SRB assay relative to control. To be noted: K562, 48 h, read-out: Activity.
The next assay deals with SNB-75. Nature of the assay: Cytotoxicity against Homo sapiens (human) SNB75 cells assessed as cell growth at 10 uM after 48 hr by SRB assay relative to control. To be noted: SNB-75, 48 h, read-out: Activity.
Another assay relates to U-251. Nature of the assay: Cytotoxicity against Homo sapiens (human) U251 cells assessed as cell growth at 10 uM after 48 hr by SRB assay relative to control. The conditions noted are these: U-251, 48 h, read-out: Activity.
The test system of another assay is CCRF-CEM. In words: Cytotoxicity against Homo sapiens (human) CCRF-CEM cells assessed as cell growth at 10 uM after 48 hr by SRB assay relative to control. The conditions noted are these: read-out: Activity.
In a further assay the test system is HL-60(TB). Nature of the assay: Cytotoxicity against Homo sapiens (human) HL-60(TB) cells assessed as cell growth at 10 uM after 48 hr by SRB assay relative to control. The conditions noted are these: HL-60, 48 h, read-out: Activity.
A further assay deals with MDA-MB-435. In words: Cytotoxicity against Homo sapiens (human) MDA-MB-435 cells assessed as cell growth at 10 uM after 48 hr by SRB assay relative to control. The conditions noted are these: MDA-MB-435, 48 h, read-out: Activity.

Here are results for 17 molecules from ChEMBL document CHEMBL3045943, “Novel N-aryl(alkaryl)-2-[(3-R-2-oxo-2H-[1,2,4]triazino[2,3-c]quinazoline-6-yl)thio]acetamides: synthesis, cytotoxicity, anticancer activity, COMPARE analysis and docking” (2013).

As to `O=C(CSc1nc2ccccc2c2nc(=O)c(-c3ccccc3)nn12)NCc1ccccc1Cl`, the growth at 10 µM with HCT-116 stood at 7.01%; with SF-539, 9.93%; in the assay with SR, 47.4%; with OVCAR-3, 47.9%; with LOX IMVI, 27.9%; in the assay with NCI-H522, 43.2%. In the assay with HOP-92, the growth at 10 µM is 44.8%. Further, the Activity turned out to be 80% in assay [1]; 108.3% in [2]; 110% in assay [3]; 155% in [4]; 133.3% in assay [5]; 93% in [6].

As to `Cc1nn2c(SCC(=O)NCc3ccccc3)nc3ccccc3c2nc1=O`, the Activity in [1] came to 87.5%; in assay [2], 66.7%; in [3], 250%; in assay [4], 91.7%; in [5], 115.4%; in assay [6] it was 72.7%. The growth at 10 µM in the assay with MOLT-4 came to 78.5%.

On to `COc1ccc(-c2nn3c(SCC(=O)Nc4ccccc4C(F)(F)F)nc4ccccc4c3nc2=O)cc1`, for which the Activity in [1] stood at 106.5%; in [2], 97.8%; in [3], 102.9%; in assay [4], 113.4%; in assay [5], 200%; in [6] it was 185.2%. Further, in [7], the growth at 10 µM turned out to be 85.1%.

Turning to `Cc1nn2c(SCC(=O)NCc3ccc(F)cc3)nc3ccccc3c2nc1=O`, the Activity in assay [1] amounted to 78.8%; in assay [2], 77.8%; in [3], 200%; in assay [4], 91.7%; in assay [5], 123.1%; in assay [6], 118.2%. In addition, in the assay on UO-31, the growth at 10 µM worked out at 61.6%.

For the molecule `Cc1ccc(-c2nn3c(SCC(=O)Nc4cccc(C(F)(F)F)c4)nc4ccccc4c3nc2=O)cc1`, the Activity in assay [1] came out at 78.8%; in [2], 61.1%; in [3], 200%; in [4], 83.3%; in [5], 81.5%; in assay [6] it was 118.2%. Besides, the growth at 10 µM with SF-539 stood at 80.8%; in the assay on SR, 66.5%; in the assay on HOP-92, 71%.

For `Cc1nn2c(SCC(=O)NCc3ccccc3F)nc3ccccc3c2nc1=O`, the Activity in assay [1] stood at 66.7%; in assay [2], 116.7%; in assay [3], 200%; in assay [4] it was 170%; in [5], 233.3%; in assay [6], 130.2%. In addition, the growth at 10 µM with K562 was 77.8%.

On to `Cc1ccc(-c2nn3c(SCC(=O)Nc4ccccc4C)nc4ccccc4c3nc2=O)cc1`, for which the Activity in assay [1] is on record as 109.7%; in assay [2], 119.7%; in assay [3], 93.3%; in assay [4], 193.5%; in assay [5], 66.7%; in [6], 100%. The growth at 10 µM with SNB-75 was 46.7%; in the assay on U-251 it was 63.5%; with CCRF-CEM, -49.6%.

In the case of `Cc1nn2c(SCC(=O)Nc3cccc(Cl)c3)nc3ccccc3c2nc1=O`, the Activity in assay [1] stood at 99.1%; in assay [2], 99.3%; in assay [3], 42.9%; in assay [4] it was 104.5%; in [5], 250%; in assay [6], 185.2%. In addition, the growth at 10 µM in the assay with K562 stood at 57.2%.

For `Cc1ccc(-c2nn3c(SCC(=O)Nc4ccccc4F)nc4ccccc4c3nc2=O)cc1`, the Activity in assay [1] is listed as 86.96%; in assay [2] it was 89.86%; in assay [3], 100%; in assay [4], 47.83%; in assay [5] it was 87.5%; in assay [6] it was 112.5%. The growth at 10 µM in the assay with HL-60(TB) was 84.4%; in assay [7] it was 94.4%; with K562 it was 77.5%; in the assay on SR, 73.7%; with MOLT-4, 82.3%; with CCRF-CEM, 76.8%.

In the case of `COc1ccc(NC(=O)CSc2nc3ccccc3c3nc(=O)c(-c4ccc(C)cc4)nn23)cc1`, the Activity in assay [1] is 106%; in assay [2], 88.3%; in [3] it was 75%; in [4] it was 142.9%; in assay [5], 117%; in [6], 95.6%. The growth at 10 µM in the assay on U-251 amounted to 61.1%; in the assay with NCI-H522, 57.9%.

With `Cc1ccc(-c2nn3c(SCC(=O)Nc4ccccc4C(=O)O)nc4ccccc4c3nc2=O)cc1`, the growth at 10 µM in the assay on NCI-H522 is 78.2%.

As to `O=C(CSc1nc2ccccc2c2nc(=O)c(-c3ccccc3)nn12)NCCc1ccccc1`, the Activity came out at 121.5% in assay [1]; 109.5% in assay [2]; 57.1% in assay [3]; 119.4% in [4]; 400% in assay [5]; 222.2% in assay [6]. Also, the growth at 10 µM in the assay with LOX IMVI was 61.1%.

In the case of `COc1ccc(CNC(=O)CSc2nc3ccccc3c3nc(=O)c(-c4ccccc4)nn23)cc1`, the Activity in [1] was 106.2%; in assay [2], 111.5%; in [3] it was 40%; in [4], 138.7%; in [5], 44.4%; in assay [6], 50%. Further, the growth at 10 µM in the assay with MOLT-4 is 78.7%.

`Cc1nn2c(SCC(=O)NCc3cccc(C(F)(F)F)c3)nc3ccccc3c2nc1=O`: the Activity in assay [1] turned out to be 75%; in assay [2] it was 66.7%; in assay [3], 193.3%; in assay [4], 100%; in [5], 92.3%; in assay [6], 123.6%. Besides, in the assay on UO-31, the growth at 10 µM worked out at 54.5%.

Regarding `Cc1nn2c(SCC(=O)NCCc3ccccc3)nc3ccccc3c2nc1=O`, the Activity in [1] amounted to 87.5%; in assay [2] it was 72.2%; in assay [3], 133.3%; in assay [4] it was 100%; in [5], 100%; in assay [6], 136.4%. For the same molecule, the growth at 10 µM in the assay on UO-31 stood at 77.3%.

Consider `O=C(CSc1nc2ccccc2c2nc(=O)c(-c3ccccc3)nn12)Nc1ccc(Cl)cc1`, for which the Activity in [1] was 120%; in assay [2], 100%; in assay [3], 87.5%; in [4], 142.9%; in assay [5] it was 212.8%; in assay [6], 88.9%. For the same molecule, the growth at 10 µM in the assay on MOLT-4 is 77.5%.

Take `Cc1nn2c(SCC(=O)NCc3ccccc3Cl)nc3ccccc3c2nc1=O`: the growth at 10 µM in the assay on MDA-MB-435 came to 79.8%; in the assay on NCI-H522, 79.9%. The Activity in [1] is recorded as 110%; in [2], 91.7%; in assay [3] it was 125%; in assay [4] it was 142.9%; in [5] it was 180.9%; in assay [6], 148.9%.
